Assay: Solubility of isobutyl magnolol (statement in words)
Type: physicochemical
Settings: background statement

solubility both in water and in oil: extremely poor
Structure (SMILES): CC(C)Cc1ccc(O)c(-c2cc(CC(C)C)ccc2O)c1 [isobutyl magnolol, 5,5′-di(2-methylpropyl)-biphenyl-2,2′-diol]
